Read-outs that look alike come from different tables or passages of the source.
Assays:
[1] = molecular target: T1, p75^NTR receptors (PC12 cells) (Rattus norvegicus, UniProt P07174); assay: Basic screening assay: binding of 125I-BDNF to PC12 cells; conditions: read-out: BDNF Activity % Maximal Binding
T1 construct: endogenous in cells; host or cells: PC12 cells
T1 sequence (P07174 30-425): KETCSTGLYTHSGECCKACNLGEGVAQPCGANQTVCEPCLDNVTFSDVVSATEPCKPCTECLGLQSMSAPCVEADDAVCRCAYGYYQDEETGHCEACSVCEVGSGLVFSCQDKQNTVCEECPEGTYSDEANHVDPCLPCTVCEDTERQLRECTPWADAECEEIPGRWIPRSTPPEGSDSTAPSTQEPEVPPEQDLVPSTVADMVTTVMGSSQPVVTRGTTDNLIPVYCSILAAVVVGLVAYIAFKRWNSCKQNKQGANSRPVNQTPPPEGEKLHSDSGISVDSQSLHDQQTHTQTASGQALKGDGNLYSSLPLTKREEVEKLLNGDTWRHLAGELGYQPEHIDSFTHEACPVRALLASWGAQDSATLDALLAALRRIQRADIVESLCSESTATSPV
T1 sequence (P23560 129-247 partner): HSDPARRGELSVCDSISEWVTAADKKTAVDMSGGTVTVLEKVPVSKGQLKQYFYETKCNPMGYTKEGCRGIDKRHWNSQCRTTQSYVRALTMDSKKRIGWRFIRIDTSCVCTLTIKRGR
Procedure, shortened: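 4×10^6 PC12 cells incubated 2 h at 4° C, rotating, with 0.5 nM ^125I-BDNF (final) and compound at 50 μM, in duplicate or more. Bound ligand separated through 10% glycerol by centrifugation and counted by gamma counter; specific binding is Bmax minus NSB; inhibitors followed up for EC50.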

[2] = system: p75^NTR receptors (PC12 cells); assay: Basic screening assay: binding of 125I-NGF to PC12 cells; conditions: test compound 50 μM, 0.5 nM 125I-NGF, PC12 cells, 2 h at 4° C., specific binding as percent of control
Procedure, shortened: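 Inhibition of 0.5 nM 125I-NGF binding to p75NTR on PC12 cells was measured with compounds at 50 μM during 2 h rotation at 4° C. Cell-bound radioactivity from glycerol-cushion centrifugation was gamma-counted, giving NSB-corrected binding as % of control specific binding.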

[3] = Table 2, test compound 50 μM, 0.5 nM 125I-BDNF, PC12 cells, 2 h at 4° C., specific binding as percent of control
[4] = Table 4, test compound 50 μM, 0.5 nM 125I-BDNF, PC12 cells, 2 h at 4° C., specific binding as percent of control

Row | Structure (SMILES) | NGF Activity % Maximal Binding ([2]; Table 2) | activity at 50 µM [1, 4] [%] | NGF Activity % Maximal Binding ([2]; Table 4) | further results
1 | Cc1c(-c2ccc(C=C3C(=O)NC(=S)NC3=O)o2)ccc([N+](=O)[O-])c1C [Compound 71, 5-[5-(2,3-Dimethyl-4-nitrophenyl)furan-2-ylmethylene]-2-thioxo-dihydro-pyrimidine-4,6-dione] | X (40 < X < 50) | – | – | activity at 50 µM [1]: 0 to 10%
2 | O=C(O)c1ccc(Cl)c(-c2ccc(/C=C3/NC(=O)N(Cc4ccccc4F)C3=O)o2)c1 [Compound 72, 4-Chloro-3-{5-[1-(2-fluorobenzyl)-2,5-dioxo-imidazolidin-4-ylidenemethyl]furan-2-yl}benzoic acid] | X (40 < X < 50) | – | – | activity at 50 µM [1, 3]: 0 to 10%
3 | CCN1C(=O)S/C(=C/c2ccc(-c3ccc(C(=O)O)cc3)o2)C1=O [Compound 73, 4-[5-(3-Ethyl-2,4-dioxo-thiazolidin-5-ylidenemethyl)furan-2-yl]benzoic acid] | X (40 < X < 50) | – | – | activity at 50 µM [1, 3]: 0 to 10%
4 | NS(=O)(=O)c1cccc(-c2ccc(/C=C3/SC(=S)N(CC(=O)O)C3=O)o2)c1 [Compound 74, {4-oxo-5-[5-(3-sulfamoylphenyl)furan-2-ylmethylene]-2-thioxo-thiazolidin-3-yl}-acetic acid] | X (40 < X < 50) | – | – | activity at 50 µM [1, 3]: 0 to 10%
5 | O=C1NC(=O)C(=Cc2ccc(-c3ccc(Cl)c(C(=O)O)c3)o2)C(=O)N1 [Compound 75, 2-Chloro-5-[5-(2,4,6-trioxo-tetrahydro-pyrimidin-5-ylidenemethyl)furan-2-yl]benzoic acid] | X (40 < X < 50) | – | – | activity at 50 µM [1]: 0 to 10%
6 | Cc1cc(C(=O)O)ccc1-c1ccc(/C=C2\SC(=O)N(C)C2=O)o1 [Compound 76, 3-Methyl-4-[5-(3-methyl-2,4-dioxo-thiazolidin-5-ylidenemethyl)furan-2-yl]benzoic acid] | X (40 < X < 50) | – | – | activity at 50 µM [1, 3]: 0 to 10%
7 | CN1C(=O)NC(=O)/C(=C/c2ccc(-c3cccc(C(=O)O)c3)o2)C1=O [Compound 77, 3-[5-(1-Methyl-2,4,6-trioxo-tetrahydro-pyrimidin-5-ylidenemethyl)furan-2-yl]benzoic acid] | XXX (20 < XXX < 30) | – | – | activity at 50 µM [1]: 10 to 20%
8 | CN1C(=O)NC(=O)C(=Cc2ccc(-c3cccc([N+](=O)[O-])c3)o2)C1=O [Compound 78, 1-Methyl-5-[5-(3-nitrophenyl)furan-2-ylmethylene]-pyrimidine-2,4,6-trione] | X (40 < X < 50) | – | – | activity at 50 µM [1]: 10 to 20%
9 | COC(=O)CN1C(=O)S/C(=C/c2ccc(-c3ccc(C(=O)O)cc3)o2)C1=O [Compound 79, 4-[5-(3-Methoxycarbonylmethyl-2,4-dioxo-thiazolidin-5-ylidenemethyl)furan-2-yl]benzoic acid] | X (40 < X < 50) | – | – | activity at 50 µM [1, 3]: 10 to 20%
10 | CN1C(=O)S/C(=C/c2ccc(-c3ccc(C(=O)O)c(Cl)c3)o2)C1=O [Compound 80, 2-Chloro-4-[5-(3-methyl-2,4-dioxo-thiazolidin-5-ylidenemethyl)furan-2-yl]benzoic acid] | X (40 < X < 50) | – | – | activity at 50 µM [1, 3]: 10 to 20%
11 | Cc1c(-c2ccc(C=C3C(=O)NC(=O)NC3=O)o2)ccc([N+](=O)[O-])c1C [Compound 81, 5-[5-(2,3-Dimethyl-4-nitrophenyl)furan-2-ylmethylene]-pyrimidine-2,4,6-trione] | XX (30 < XX < 40) | – | – | activity at 50 µM [1]: 20 to 30%
12 | Cc1cccc(N2NC(=O)C(=Cc3ccc(-c4ccc(C(=O)O)cc4)o3)C2=O)c1 [Compound 82, 4-[5-(3,5-Dioxo-1-m-tolyl-pyrazolidin-4-ylidenemethyl)furan-2-yl]benzoic acid] | X (40 < X < 50) | – | – | activity at 50 µM [1, 3]: 20 to 30%
13 | O=C(O)CCCN1C(=O)C(=Cc2ccc(-c3cccc([N+](=O)[O-])c3)o2)SC1=S [Compound 84, 4-{5-[5-(3-Nitrophenyl)furan-2-ylmethylene]-4-oxo-2-thioxo-thiazolidin-3-yl}-butyric acid] | XXXXX (0 < XXXXX < 10) | – | – | activity at 50 µM [1, 3]: 40 to 50%
14 | O=C1NC(=S)N/C1=C/c1ccc(-c2ccc(Cl)c(C(=O)O)c2)o1 [Compound 85, 2-Chloro-5-[5-(5-oxo-2-thioxo-imidazolidin-4-ylidenemethyl)furan-2-yl]benzoic_acid] | – | – | – | activity at 50 µM ([1]; Table 3, test compound 50 μM, 0.5 nM 125I-BDNF, PC12 cells, 2 h at 4° C., specific binding as percent of control): > 50%; NGF Activity % Maximal Binding ([2]; Table 3): X (40 < X < 50)
15 | O=C1NC(=O)C(=Cc2ccc(-c3cccc([N+](=O)[O-])c3)o2)S1 [Compound 87, 5-[5-(3-Nitrophenyl)furan-2-ylmethylene]-thiazolidine-2,4-dione] | – | > 50 | * (50 < *) | –
16 | Cc1ccc([N+](=O)[O-])cc1-c1ccc(/C=C2/SC(=O)NC2=O)o1 [Compound 88, 5-[5-(2-Methyl-5-nitrophenyl)furan-2-ylmethylene]-thiazolidine-2,4-dione] | – | > 50 | * (50 < *) | –
17 | O=C1NC(=S)N/C1=C\c1ccc(-c2cccc([N+](=O)[O-])c2)o1 [Compound 89, 5-[5-(3-Nitrophenyl)furan-2-ylmethylene]-2-thioxo-imidazolidin-4-one] | – | > 50 | * (50 < *) | –
18 | COc1cc([N+](=O)[O-])ccc1-c1ccc(/C=C2\NC(=S)NC2=O)o1 [Compound 90, 5-[5-(2-Methoxy-4-nitrophenyl)furan-2-ylmethylene]-2-thioxo-imidazolidin-4-one] | – | > 50 | * (50 < *) | –
19 | COC(=O)c1cc(-c2ccc(/C=C3/NC(=S)NC3=O)o2)ccc1Cl [Compound 91, 2-Chloro-5-[5-(5-oxo-2-thioxo-imidazolidin-4-ylidenemethyl)furan-2-yl]benzoic acid methyl ester] | – | > 50 | * (50 < *) | –
20 | Cc1cc([N+](=O)[O-])ccc1-c1ccc(C=C2SC(=O)NC2=O)o1 [Compound 92, 5-[5-(2-Methyl-4-nitrophenyl)furan-2-ylmethylene]-thiazolidine-2,4-dione] | – | > 50 | * (50 < *) | –
21 | O=C1NC(=S)N/C1=C/c1ccc(-c2ccc(Cl)c([N+](=O)[O-])c2)o1 [Compound 93, 5-[5-(4-Chloro-3-nitrophenyl)furan-2-ylmethylene]-2-thioxo-imidazolidin-4-one] | – | > 50 | * (50 < *) | –
22 | Cc1cc([N+](=O)[O-])ccc1-c1ccc(C=C2NC(=S)NC2=O)o1 [Compound 94, 5-[5-(2-Methyl-4-nitrophenyl)furan-2-ylmethylene]-2-thioxo-imidazolidin-4-one] | – | > 50 | * (50 < *) | –
23 | Cc1cc(-c2ccc(C=C3NC(=S)NC3=O)o2)ccc1[N+](=O)[O-] [Compound 95, 5-[5-(3-Methyl-4-nitrophenyl)furan-2-ylmethylene]-2-thioxo-imidazolidin-4-one] | – | > 50 | * (50 < *) | –
24 | Cc1cc(-c2ccc(C=C3C(=O)NC(=O)NC3=O)o2)ccc1[N+](=O)[O-] [Compound 96, 5-[5-(3-Methyl-4-nitrophenyl)furan-2-ylmethylene]-pyrimidine-2,4,6-trione] | – | – | * (50 < *) | activity at 50 µM [1]: > 50%
25 | O=C(O)CCCN1C(=O)C(=Cc2ccc(-c3ccc([N+](=O)[O-])cc3)o2)SC1=S [Compound 98, 4-{5-[5-(4-Nitrophenyl)furan-2-ylmethylene]-4-oxo-2-thioxo-thiazolidin-3-yl}-butyric acid] | – | > 50 | * (50 < *) | –
26 | CCOC(=O)c1ccc(-c2ccc(C=C3C(=O)NC(=S)NC3=O)o2)cc1 [Compound 99, 4-[5-(4,6-Dioxo-2-thioxo-tetrahydro-pyrimidin-5-ylidenemethyl)furan-2-yl]benzoic acid ethyl ester] | – | – | * (50 < *) | activity at 50 µM [1]: > 50%
27 | O=C1NC(=S)S/C1=C/c1ccc(-c2ccc([N+](=O)[O-])cc2Br)o1 [Compound 100, 5-[5-(2-Bromo-4-nitrophenyl)furan-2-ylmethylene]-2-thioxo-thiazolidin-4-one] | – | > 50 | * (50 < *) | –
